This experiment deals with human keratinocyte LTB4 production. The experiment in a line: Cell-based 5-LO assay: LTB4 production by cultured human keratinocytes (enzyme immunoassay). The conditions noted are these: 5, 1.0, 0.2 and 0.04 uM, 24 hours, high calcium medium. An excerpt:
In addition to assessing the effect of dehydroabietic acid methyl ester on the production of PGE2 by human keratinocytes, the human keratinocyte culture system was also used to assess for the inhibition of LTB4 production. Keratinocytes have not been used as extensively as other cell types for 5-LO studies, however, human keratinocytes produce appreciable amounts of LTB4 and production of this eicosanoid by cultured keratinocytes is inhibited by known inhibitors of 5-LO (see FIG. 11). To assess for inhibition of LTB4 production, human keratinocytes were cultured as described above. Following introduction of the high calcium media, the identical dilution series of dehydroabietic acid methyl ester as described above in the PGE2 study was added to duplicate wells of keratinocytes. Twenty-four hours later culture media samples were removed from each well and the amount of LTB4 in each sample determined using an enzyme immunoassay specific for LTB4 (Cayman Chemical). As was done with the PGE2 assay described above, the percent inhibition was calculated based on a comparison between vehicle treated control cultures and cultures treated with dehydroabietic acid methyl ester or Rev 5901 (a specific 5-LO inhibitor; Cayman Chemical).

Structures are written as SMILES.

For `COC(=O)[C@]1(C)CCC[C@]2(C)c3ccc(C(C)C)cc3CC[C@@H]12` [Dehydroabietic acid methyl ester, dehydroabietic acid methyl ester], the “inhibition of LTB4 production by cultured human keratinocytes” value is listed as “inhibited the production of LTB4 by cultured human keratinocytes in a dose-dependent manner”.
